Measured values taken from patent US4831170A, “Pharmaceutically active phospino-hydrocarbon-group VIII-metal complexes, antitumor compositions containing these complexes, and a process for preparing said compounds or antitumor compositions” (priority 1985, dated 1989).
Several values for one entry are separate records, joined by “and”; a condition that tells them apart may be missing. Identical values can stand only once.

Columns and labels:
[1] = tested on: P388 murine leukemia; assay: Antitumor activity against P388 murine leukemia in CDF1 mice; type: in vivo; details: 1 x on day 1; for P 388 Dose producing the maximum % T/C: administered ip; for P 388 Maximum % T/C: median survival time treated/saline control x 100, ip, active if ≥125
Method: (§1) All of the metal complexes were tested for antitumor activity against P388 murine leukemia. Selected compounds were also tested for antitumor activity against L1210 murine leukemia and a subline of L1210 murine leukemia resistant to cisplatin (L1210:DDP). CDF1 mice weighing 20 grams were inoculated intraperitoneally with 10^6 ascites cells of P388 leukemia, L1210 leukemia or L1210:DDP leukemia, depending on the test system being used. Drug administration was initiated the day following tumor implantation in all test systems. The complexes were administered at various dose levels by intraperitoneal injection. Groups of four to six mice were used for each dose level and they were treated with the complex on day one only. A group of ten saline treated control mice was included in each experiment. Cisplatin treated groups were included as a positive control in each experiment. The mice were weighed before treatment and again on day five or six and the average weight change used as a measure of toxicity. The animals were observed daily for mortality and the experiments terminated after 30 days. Antitumor activity was determined based on % T/C, which is the ratio of the median survival time of the drug treated group to the median survival time of the saline treated control group times 100. The saline treated mice usually have a median survival time of 9 days with P388 leukemia and 7 days with L1210 and L1210/DDP leukemia. A complex is considered active if it produces a % T/C of ≥125.
(§2) Tables II and IIa contain summaries of the evaluations of the compounds for antitumor activity against the murine leukemias. Listed for each compound is the maximum % T/C achieved and the dose producing that effect.
(§3) For the in vitro cytotoxicity studies the drugs were dissolved or suspended, depending on their solubility, in 0.9% NaCl solution. Occasionally, 5% dextrose in water or 10% DMSO in 0.9% NaCl was used. The compounds were prepared for in vivo treatment by dissolving or suspending, with the addition of minimal amounts of Tween 80, in water.

[2] = tested on: B16 Melanoma; assay: Antitumor activity against B16 Melanoma in BDF1 mice; type: in vivo; details: for B 16 Dose producing the maximum % T/C: administered ip, days 1-9; for B 16 Maximum % T/C: median survival time vs saline control, ip, daily days 1-9, active if ≥125, figures separated by slashes are from separate experiments
Method: Several of the metal complexes were additionally evaluated for antitumor activity against B16 Melanoma. BDF1 mice, 10 per group, were inoculated intraperitoneally with 0.5 ml of a 10 percent (w:v) brei of B16 Melanoma. Intraperitoneal treatment with the metal complexes was initiated one day after implant and continued daily for a total of nine days. From 4 to 5 doses were tested for each compound under study. A saline treated control group and cisplatin treated groups were included in each experiment. The mice were observed daily for survivors and the experiments terminated after 60 days. […] The median survival time of the drug treated mice relative to that of the controls (% T/C) was used as a measure of antitumor activity.
Occasionally, 5% dextrose in water or 10% DMSO in 0.9% NaCl was used. The compounds were prepared for in vivo treatment by dissolving or suspending, with the addition of minimal amounts of Tween 80, in water.

[3] = tested on: L1210 murine leukemia resistant to cisplatin (L1210:DDP); assay: Antitumor activity against cisplatin-resistant L1210 murine leukemia (L1210/DDP) in CDF1 mice; type: in vivo; details: cisplatin-resistant subline, day 1; for L1210/DDP Dose producing the maximum % T/C: administered ip; for L1210/DDP Max. % T/C: done concomitantly with L1210 test, ip, active if ≥125
Method: as §1, §2, §3

[4] = tested on: L1210 murine leukemia; assay: Antitumor activity against L1210 murine leukemia in CDF1 mice; type: in vivo; details: day 1; for L1210 Dose producing the maximum % T/C: administered ip; for L1210 Max. % T/C: median survival time treated/saline control x 100, ip, active if ≥125
Method: as §1, §2, §3

[5] = tested on: HCT-116 human colon carcinoma cells; assay: In vitro cytotoxicity, HCT-116 human colon carcinoma cells (72 h, crystal violet); type: cell-based; details: HCT-116 cells
Method: (§4) Logarithmically growing cells were harvested by mild trypsinization and 4000 cells were added to each well of a 96-well microtiter plate (Costar). […] The cells were then treated with a metal complex or cisplatin and incubated for 72 hours. The plates were inverted and shaken to remove media, drug and detached cells. […] The fixative was removed, the plates air dried, stained with 0.0075% crystal violet for 15 minutes, washed twice and air dried. The stain was solubilized with 0.2 ml of 0.1 M AcOH/EtOH (1:1) and optical densities determined using a Dynatech MR600 microtiter plate reader. […] The compounds were prepared for in vivo treatment by dissolving or suspending, with the addition of minimal amounts of Tween 80, in water.

[6] = tested on: B16-F10 murine melanoma cells; assay: In vitro cytotoxicity, B16-F10 murine melanoma cells (72 h, crystal violet); type: cell-based
Method: as §4

Compound	P 388 Dose producing the maximum % T/C [1] [mg/kg]	P 388 Maximum % T/C [1] [% T/C]	B 16 Dose producing the maximum % T/C [2] [mg/kg/inj.]	B 16 Maximum % T/C [2]	L1210/DDP Dose producing the maximum % T/C [3] [mg/kg]	L1210/DDP Max. % T/C [3] [% T/C]	L1210 Dose producing the maximum % T/C [4] [mg/kg]	L1210 Max. % T/C [4] [% T/C]	IC 50 (concentration which inhibits cell growth by 50%), HCT 116 [5] [mg/L]	IC 50 (concentration which inhibits cell growth by 50%), B 16 [6] [mg/L]
O=S(=O)([O-])C(F)(F)F.[Rh+].c1ccc(P(CCP(c2ccccc2)c2ccccc2)c2ccccc2)cc1.c1ccc(P(CCP(c2ccccc2)c2ccccc2)c2ccccc2)cc1 [TNO 302, Bis[1,2-bis(diphenylphosphino)ethane]rhodium(I) triflate]	4	153	3.2	150 % T/C and 126 % T/C						
[O-][Cl+3]([O-])([O-])[O-].[Rh+].c1ccc(P(CCP(c2ccccc2)c2ccccc2)c2ccccc2)cc1.c1ccc(P(CCP(c2ccccc2)c2ccccc2)c2ccccc2)cc1 [TNO 316, Bis[1,2-bis(diphenylphosphino)ethane]rhodium(I) perchlorate]	12.5	150	16	131 % T/C	120	157	160	133		
[I-].[I-].[Pd+2].c1ccc(P(CCP(c2ccccc2)c2ccccc2)c2ccccc2)cc1.c1ccc(P(CCP(c2ccccc2)c2ccccc2)c2ccccc2)cc1 [TNO 342, Bis[1,2-(diphenylphosphino)ethane]diiodo palladium(II)]	5	139								
[O-][Cl+3]([O-])([O-])[O-].[O-][Cl+3]([O-])([O-])[O-].[Pd+2].c1ccc(P(CCP(c2ccccc2)c2ccccc2)c2ccccc2)cc1.c1ccc(P(CCP(c2ccccc2)c2ccccc2)c2ccccc2)cc1 [TNO 343, Bis[1,2-bis(diphenylphosphino)ethane]palladium(II) diperchlorate]	200	178	60	204 % T/C						
[Br-].[Br-].[Co+2].c1ccc(P(CCP(c2ccccc2)c2ccccc2)c2ccccc2)cc1.c1ccc(P(CCP(c2ccccc2)c2ccccc2)c2ccccc2)cc1 [TNO 346, Bis[1,2-bis(diphenylphosphino)ethane]bromo cobalt(II) bromide]	100	167					200	100		
[Cl-].[Cl-].[Cl-].[Rh+3].c1ccc(P(CCP(c2ccccc2)c2ccccc2)c2ccccc2)cc1.c1ccc(P(CCP(c2ccccc2)c2ccccc2)c2ccccc2)cc1 [TNO 363, Bis[1,2-bis(diphenylphosphino)ethane]dichloro rhodium(III) chloride]	50	133								
[Br-].[Br][Pd+].c1ccc(P(CCP(c2ccccc2)c2ccccc2)c2ccccc2)cc1.c1ccc(P(CCP(c2ccccc2)c2ccccc2)c2ccccc2)cc1 [TNO 376, Bis[1,2-bis(diphenylphosphino)ethane]bromo palladium(II) bromide]									6.3	0.7
[Cl-].[Cl-].[O-][Cl+3]([O-])([O-])[O-].[Rh+3].c1ccc(P(CC[As](c2ccccc2)c2ccccc2)c2ccccc2)cc1.c1ccc(P(CC[As](c2ccccc2)c2ccccc2)c2ccccc2)cc1 [TNO 395, Bis[1-diphenylphosphino-2-diphenylarsinoethane]dichloro rhodium(III) perchlorate]	200	136								
[Ir+3].[O-][Cl+3]([O-])([O-])[O-].[O-][O-].c1ccc(P(CCP(c2ccccc2)c2ccccc2)c2ccccc2)cc1.c1ccc(P(CCP(c2ccccc2)c2ccccc2)c2ccccc2)cc1 [TNO 413, Bis[1,2-bis(diphenylphosphino)ethane]peroxo iridium(III) perchlorate]	200	170								
Bis[1,2-bis(diphenylphosphino)ethane] cobalt(II) diperchlorate [TNO 358]	100	144	20	150 % T/C	100	143	120	142		
Bis[1,2-bis(diphenylphosphino)ethane] dichloro rhodium(III) perchlorate [TNO 355]	100	167	30	171 % T/C	49	119	80	114		
Bis[1,2-bis(diphenylphosphino)ethane] iridium(I) perchlorate [TNO 344]	200	167	20	150 % T/C						
Bis[1,2-bis(diphenylphosphino)ethane] nickel(II) perchlorate [TNO 404]	25	240								
Bis[1,2-bis(diphenylphosphino)ethane]palladium(II) dichlorate [TNO 306]	60	144	12	202 % T/C and 151 % T/C	3.0	100	1.9	100		57
Bis[cis-1,2-bis(diphenylphosphino)ethylene]dichloro iron(III) tetrachloroferrate(III) [TNO 405]	100	160								
Bis[cis-1,2-bis(diphenylphosphino)ethylene]palladium(II) dichloride [TNO 357]									13.1	27.7
